Results reported in PubChem BioAssay (NCI).
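Where inhibition never reached the appropriate level, the endpoint shown equals the highest concentration tested. Otherwise, values were interpolated linearly from a five-concentration, 48-hour dose response in 96-well plates. TGI is the concentration that stops growth completely.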

Assays:
Experiment in all cases: NCI tumour cell line growth inhibition, 48 h
786-0 renal = system: 786-0 renal
A498 renal = system: A498 renal
A549 NSCLC = system: A549 NSCLC
ACHN renal = system: ACHN renal
BT-549 breast = system: BT-549 breast
CAKI-1 renal = system: CAKI-1 renal
CCRF-CEM leukemia = system: CCRF-CEM leukemia
COLO 205 colon = system: COLO 205 colon
DU-145 prostate = system: DU-145 prostate
EKVX NSCLC = system: EKVX NSCLC
HCC-2998 colon = system: HCC-2998 colon
HCT-116 colon = system: HCT-116 colon
HCT-15 colon = system: HCT-15 colon
HL-60(TB) leukemia = system: HL-60(TB) leukemia
HOP-62 NSCLC = system: HOP-62 NSCLC
HOP-92 NSCLC = system: HOP-92 NSCLC
HS 578T breast = system: HS 578T breast
HT29 colon = system: HT29 colon
IGROV1 ovarian = system: IGROV1 ovarian
K-562 leukemia = system: K-562 leukemia
KM12 colon = system: KM12 colon
LOX IMVI melanoma = system: LOX IMVI melanoma
M14 melanoma = system: M14 melanoma
MALME-3M melanoma = system: MALME-3M melanoma
MCF7 breast = system: MCF7 breast
MDA-MB-231 breast = system: MDA-MB-231 breast
MDA-MB-435 = system: MDA-MB-435
MDA-N = system: MDA-N
MOLT-4 leukemia = system: MOLT-4 leukemia
NCI-H226 lung = system: NCI-H226 lung
NCI-H23 lung = system: NCI-H23 lung
NCI-H460 lung = system: NCI-H460 lung
NCI-H522 lung = system: NCI-H522 lung
NCI/ADR-RES ovarian = system: NCI/ADR-RES ovarian
OVCAR-3 ovarian = system: OVCAR-3 ovarian
OVCAR-4 ovarian = system: OVCAR-4 ovarian
OVCAR-5 ovarian = system: OVCAR-5 ovarian
OVCAR-8 ovarian = system: OVCAR-8 ovarian
PC-3 prostate = system: PC-3 prostate
RPMI-8226 leukemia = system: RPMI-8226 leukemia
SF-268 CNS = system: SF-268 CNS
SF-295 CNS = system: SF-295 CNS
SF-539 CNS = system: SF-539 CNS
SK-MEL-2 melanoma = system: SK-MEL-2 melanoma
SK-MEL-28 melanoma = system: SK-MEL-28 melanoma
SK-MEL-5 melanoma = system: SK-MEL-5 melanoma
SK-OV-3 ovarian = system: SK-OV-3 ovarian
SN12C renal = system: SN12C renal
SNB-19 CNS = system: SNB-19 CNS
SNB-75 CNS = system: SNB-75 CNS
SR leukemia = system: SR leukemia
SW-620 colon = system: SW-620 colon
T-47D breast = system: T-47D breast
TK-10 renal = system: TK-10 renal
UACC-257 melanoma = system: UACC-257 melanoma
UACC-62 melanoma = system: UACC-62 melanoma
UO-31 renal = system: UO-31 renal
U251 CNS = system: U251 CNS

Clc1ccc(-c2cc(-c3nc4ccccc4[nH]3)no2)cc1
TGI (786-0 renal): 59 µM | TGI (A498 renal): 47.5 µM | TGI (A549 NSCLC): 36 µM | TGI (ACHN renal): 36.9 µM | TGI (BT-549 breast): 45.5 µM | TGI (CAKI-1 renal): 34.7 µM | TGI (CCRF-CEM leukemia): 57.4 µM | TGI (COLO 205 colon): 41.8 µM | TGI (DU-145 prostate): 24.6 µM | TGI (EKVX NSCLC): 34 µM | TGI (HCC-2998 colon): 33.5 µM | TGI (HCT-116 colon): 30.6 µM | TGI (HCT-15 colon): 45 µM | TGI (HL-60(TB) leukemia): 37.2 µM | TGI (HOP-62 NSCLC): 38.2 µM | TGI (HOP-92 NSCLC): 66.7 µM | TGI (HS 578T breast): 79.7 µM | TGI (HT29 colon): 35.3 µM | TGI (IGROV1 ovarian): 62.1 µM | TGI (K-562 leukemia): 50.2 µM | TGI (KM12 colon): 40 µM | TGI (LOX IMVI melanoma): 35.5 µM | TGI (M14 melanoma): 34.6 µM | TGI (MALME-3M melanoma): 37.5 µM | TGI (MCF7 breast): 31 µM | TGI (MDA-MB-231 breast): 35.5 µM | TGI (MDA-MB-435): 31.6 µM | TGI (MDA-N): 33.8 µM | TGI (MOLT-4 leukemia): 47.9 µM | TGI (NCI-H226 lung): 79.9 µM | TGI (NCI-H23 lung): 42.3 µM | TGI (NCI-H460 lung): 32.6 µM | TGI (NCI-H522 lung): 42.8 µM | TGI (NCI/ADR-RES ovarian): 73.5 µM | TGI (OVCAR-3 ovarian): 35.7 µM | TGI (OVCAR-4 ovarian): 51.4 µM | TGI (OVCAR-5 ovarian): 40.8 µM | TGI (OVCAR-8 ovarian): 67.4 µM | TGI (PC-3 prostate): 48.4 µM | TGI (RPMI-8226 leukemia): 73.1 µM | TGI (SF-268 CNS): 45.9 µM | TGI (SF-295 CNS): 33 µM | TGI (SF-539 CNS): 74.3 µM | TGI (SK-MEL-2 melanoma): 34.7 µM | TGI (SK-MEL-28 melanoma): 40.5 µM | TGI (SK-MEL-5 melanoma): 34.7 µM | TGI (SK-OV-3 ovarian): 35.8 µM | TGI (SN12C renal): 35 µM | TGI (SNB-19 CNS): 36 µM | TGI (SNB-75 CNS): 44.5 µM | TGI (SR leukemia): 59.7 µM | TGI (SW-620 colon): 46.5 µM | TGI (T-47D breast): 37.7 µM | TGI (TK-10 renal): 40 µM | TGI (UACC-257 melanoma): 36.4 µM | TGI (UACC-62 melanoma): 28.3 µM | TGI (UO-31 renal): 34.7 µM

O=C(CN1CCCC1)Nc1ccc2sc3ccccc3c(=O)c2n1
TGI (786-0 renal): 48.1 µM | TGI (A549 NSCLC): 38.8 µM | TGI (ACHN renal): 31.7 µM | TGI (BT-549 breast): 70 µM | TGI (CAKI-1 renal): 47.1 µM | TGI (CCRF-CEM leukemia): 48.2 µM | TGI (COLO 205 colon): 44.8 µM | TGI (DU-145 prostate): > 100 µM | TGI (EKVX NSCLC): > 100 µM | TGI (HCC-2998 colon): 39.8 µM | TGI (HCT-116 colon): 68.3 µM | TGI (HCT-15 colon): > 100 µM | TGI (HOP-62 NSCLC): 65 µM | TGI (HOP-92 NSCLC): 74.6 µM | TGI (HS 578T breast): 52.1 µM | TGI (HT29 colon): > 100 µM | TGI (IGROV1 ovarian): 66.5 µM | TGI (K-562 leukemia): 46.7 µM | TGI (KM12 colon): 44.2 µM | TGI (LOX IMVI melanoma): 37.3 µM | TGI (M14 melanoma): 54.4 µM | TGI (MCF7 breast): > 100 µM | TGI (MDA-MB-231 breast): > 100 µM | TGI (MDA-MB-435): 35.3 µM | TGI (MDA-N): 77.6 µM | TGI (MOLT-4 leukemia): 15.6 µM | TGI (NCI-H23 lung): 99.1 µM | TGI (NCI-H460 lung): > 100 µM | TGI (NCI-H522 lung): 36 µM | TGI (NCI/ADR-RES ovarian): 54.5 µM | TGI (OVCAR-3 ovarian): > 100 µM | TGI (OVCAR-4 ovarian): > 100 µM | TGI (OVCAR-5 ovarian): 62.3 µM | TGI (OVCAR-8 ovarian): 52.5 µM | TGI (PC-3 prostate): 57.4 µM | TGI (RPMI-8226 leukemia): 63 µM | TGI (SF-268 CNS): 85.9 µM | TGI (SF-295 CNS): 67.8 µM | TGI (SF-539 CNS): 35.3 µM | TGI (SK-MEL-2 melanoma): 49.1 µM | TGI (SK-MEL-28 melanoma): 39.7 µM | TGI (SK-MEL-5 melanoma): 53.4 µM | TGI (SK-OV-3 ovarian): 58.7 µM | TGI (SN12C renal): > 100 µM | TGI (SNB-19 CNS): > 100 µM | TGI (SNB-75 CNS): 60 µM | TGI (SR leukemia): > 100 µM | TGI (SW-620 colon): 33.6 µM | TGI (T-47D breast): > 100 µM | TGI (TK-10 renal): > 100 µM | TGI (U251 CNS): 46.3 µM | TGI (UACC-62 melanoma): 36.6 µM | TGI (UO-31 renal): 27.9 µM
